# Experimental data reported in ChEMBL document CHEMBL1697781, “Assessment of the health effects of chemicals in humans: II. Construction of an adverse effects database for QSAR modeling” (Curr Drug Discov Technol, 2004).
# Numbered stars: 1 amine (or outer) side, 2 acyl side, 3 side chain; on linkers, the order of the positions; unused ones are H or OH. Bridge positions count the residues as written; N and C are the ends. Square brackets hold non-standard residues; d marks the D form. Peptide text beside a SMILES is read from it. I, II: the chains in the order shown. Actinocin(9to1) = Cc1c2oc3c(C)ccc(C(=O)[*:1])c3nc-2c(C(=O)[*:2])c(N)c1=O; NMeV = CN[C@H](C(=O)O)C(C)C; Sar = CNCC(=O)O
# Columns and labels:
# Conditions in all cases: human; call rule not given here
# Hepatotoxicity [1] = assay: FDA HLAED, serum glutamic pyruvic transaminase (SGPT) increase
# Hepatotoxicity [2] = assay: FDA HLAED, liver enzyme composite activity
# Hepatotoxicity [3] = assay: FDA HLAED, serum glutamic oxaloacetic transaminase (SGOT) increase
# Hepatotoxicity [4] = assay: FDA HLAED, alkaline phosphatase increase
structure (smiles),measurement,setting,value
CC(=O)N[C@@H](CS)C(=O)O [ACETYLCYSTEINE],SGPT Increase - Activity Score,Hepatotoxicity [1],Active
same,SGPT Increase - Index Value,Hepatotoxicity [1],4.8
same,SGPT Increase - Number of Reports,Hepatotoxicity [1],>= 4
same,Composite Activity - Active,Hepatotoxicity [2],1
same,Composite Activity - Marginal,Hepatotoxicity [2],0
NCC(CC(=O)O)c1ccc(Cl)cc1 (stereo not given) [BACLOFEN],SGOT Increase - Activity Score,Hepatotoxicity [3],Active
same,SGOT Increase - Index Value,Hepatotoxicity [3],5.4
same,SGOT Increase - Number of Reports,Hepatotoxicity [3],>= 4
same,Composite Activity - Active,Hepatotoxicity [2],2
same,Composite Activity - Marginal,Hepatotoxicity [2],0
same,Composite Activity - Score,Hepatotoxicity [2],Active
same,Alkaline Phosphatase Increase - Activity Score,Hepatotoxicity [4],Active
same,Alkaline Phosphatase Increase - Index Value,Hepatotoxicity [4],5.4
same,Alkaline Phosphatase Increase - Number of Reports,Hepatotoxicity [4],>= 4
Nc1ccn([C@@H]2O[C@H](CO)[C@@H](O)[C@@H]2O)c(=O)n1 [CYTARABINE],SGPT Increase - Activity Score,Hepatotoxicity [1],Active
same,SGPT Increase - Index Value,Hepatotoxicity [1],4.1
same,SGPT Increase - Number of Reports,Hepatotoxicity [1],>= 4
same,SGOT Increase - Activity Score,Hepatotoxicity [3],Active
same,SGOT Increase - Index Value,Hepatotoxicity [3],6.1
same,SGOT Increase - Number of Reports,Hepatotoxicity [3],>= 4
same,Composite Activity - Active,Hepatotoxicity [2]; Liver,3
same,Composite Activity - Marginal,Hepatotoxicity [2]; Liver,0
same,Composite Activity - Score,Hepatotoxicity [2]; Liver,Active
same,Alkaline Phosphatase Increase - Activity Score,Hepatotoxicity [4],Active
same,Alkaline Phosphatase Increase - Index Value,Hepatotoxicity [4],4.1
same,Alkaline Phosphatase Increase - Number of Reports,Hepatotoxicity [4],>= 4
"Cc1c2oc3c(C)ccc(C(=O)N[C@@H]4C(=O)N[C@H](C(C)C)C(=O)N5CCC[C@H]5C(=O)N(C)CC(=O)N(C)[C@@H](C(C)C)C(=O)O[C@@H]4C)c3nc-2c(C(=O)N[C@@H]2C(=O)N[C@H](C(C)C)C(=O)N3CCC[C@H]3C(=O)N(C)CC(=O)N(C)[C@@H](C(C)C)C(=O)O[C@@H]2C)c(N)c1=O [DACTINOMYCIN] (I: T[dV]P[Sar][NMeV] / II: T[dV]P[Sar][NMeV]; ester I:1-I:C, II:1-II:C; linker I:N-II:N via Actinocin(9to1))",SGPT Increase - Activity Score,Hepatotoxicity [1],Active
same,SGPT Increase - Index Value,Hepatotoxicity [1],23.7
same,SGPT Increase - Number of Reports,Hepatotoxicity [1],>= 4
same,SGOT Increase - Activity Score,Hepatotoxicity [3],Active
same,SGOT Increase - Index Value,Hepatotoxicity [3],29.6
same,SGOT Increase - Number of Reports,Hepatotoxicity [3],>= 4
same,Composite Activity - Active,Hepatotoxicity [2],2
same,Composite Activity - Marginal,Hepatotoxicity [2],0
same,Composite Activity - Score,Hepatotoxicity [2],Active
C#C[C@]1(O)CC[C@H]2[C@@H]3CCC4=Cc5oncc5C[C@]4(C)[C@H]3CC[C@@]21C [DANAZOL],SGPT Increase - Activity Score,Hepatotoxicity [1],Active
same,SGPT Increase - Index Value,Hepatotoxicity [1],10.2
same,SGPT Increase - Number of Reports,Hepatotoxicity [1],>= 4
same,Composite Activity - Active,Hepatotoxicity [2],1
same,Composite Activity - Marginal,Hepatotoxicity [2],0
CC(O)(P(=O)(O)O)P(=O)(O)O [ETIDRONIC ACID],Composite Activity - Active,Hepatotoxicity [2],1
same,Composite Activity - Marginal,Hepatotoxicity [2],0
same,Alkaline Phosphatase Increase - Activity Score,Hepatotoxicity [4],Active
same,Alkaline Phosphatase Increase - Index Value,Hepatotoxicity [4],8.6
same,Alkaline Phosphatase Increase - Number of Reports,Hepatotoxicity [4],>= 4
FC(F)(F)C(Cl)Br (stereo not given) [HALOTHANE],SGOT Increase - Activity Score,Hepatotoxicity [3],Active
same,SGOT Increase - Index Value,Hepatotoxicity [3],16.5
same,SGOT Increase - Number of Reports,Hepatotoxicity [3],>= 4
same,Composite Activity - Active,Hepatotoxicity [2],1
same,Composite Activity - Marginal,Hepatotoxicity [2],0
COc1ccc2c(c1)c(CC(=O)O)c(C)n2C(=O)c1ccc(Cl)cc1 [INDOMETHACIN],SGOT Increase - Activity Score,Hepatotoxicity [3],Marginally Active
same,SGOT Increase - Index Value,Hepatotoxicity [3],3.8
same,SGOT Increase - Number of Reports,Hepatotoxicity [3],>= 4
same,Composite Activity - Active,Hepatotoxicity [2],0
same,Composite Activity - Marginal,Hepatotoxicity [2],2
same,Alkaline Phosphatase Increase - Activity Score,Hepatotoxicity [4],Marginally Active
same,Alkaline Phosphatase Increase - Index Value,Hepatotoxicity [4],3.1
same,Alkaline Phosphatase Increase - Number of Reports,Hepatotoxicity [4],>= 4
CN1CCN(C2=Nc3ccccc3Oc3ccc(Cl)cc32)CC1 [LOXAPINE],SGPT Increase - Activity Score,Hepatotoxicity [1],Active
same,SGPT Increase - Index Value,Hepatotoxicity [1],9.9
same,SGPT Increase - Number of Reports,Hepatotoxicity [1],>= 4
same,SGOT Increase - Activity Score,Hepatotoxicity [3],Active
same,SGOT Increase - Index Value,Hepatotoxicity [3],9.9
same,SGOT Increase - Number of Reports,Hepatotoxicity [3],>= 4
same,Composite Activity - Active,Hepatotoxicity [2],2
same,Composite Activity - Marginal,Hepatotoxicity [2],0
same,Composite Activity - Score,Hepatotoxicity [2],Active
Cc1cccc(Nc2ccccc2C(=O)O)c1C [MEFENAMIC ACID],SGPT Increase - Activity Score,Hepatotoxicity [1],Active
same,SGPT Increase - Index Value,Hepatotoxicity [1],19.5
same,SGPT Increase - Number of Reports,Hepatotoxicity [1],< 4
same,SGOT Increase - Activity Score,Hepatotoxicity [3],Active
same,SGOT Increase - Index Value,Hepatotoxicity [3],26
same,SGOT Increase - Number of Reports,Hepatotoxicity [3],>= 4
same,Composite Activity - Active,Hepatotoxicity [2]; Liver,2
same,Composite Activity - Marginal,Hepatotoxicity [2]; Liver,0
same,Composite Activity - Score,Hepatotoxicity [2]; Liver,Active
Sc1ncnc2nc[nH]c12 [MERCAPTOPURINE ANHYDROUS],SGPT Increase - Activity Score,Hepatotoxicity [1],Active
same,SGPT Increase - Index Value,Hepatotoxicity [1],5.2
same,SGPT Increase - Number of Reports,Hepatotoxicity [1],>= 4
same,SGOT Increase - Activity Score,Hepatotoxicity [3],Active
same,SGOT Increase - Index Value,Hepatotoxicity [3],4.4
same,SGOT Increase - Number of Reports,Hepatotoxicity [3],>= 4
same,Composite Activity - Active,Hepatotoxicity [2]; Liver,2
same,Composite Activity - Marginal,Hepatotoxicity [2]; Liver,0
same,Composite Activity - Score,Hepatotoxicity [2]; Liver,Active
Cc1ncc([N+](=O)[O-])n1CCO [METRONIDAZOLE],Composite Activity - Active,Hepatotoxicity [2],1
same,Composite Activity - Marginal,Hepatotoxicity [2],0
same,Alkaline Phosphatase Increase - Activity Score,Hepatotoxicity [4],Active
same,Alkaline Phosphatase Increase - Index Value,Hepatotoxicity [4],6.2
same,Alkaline Phosphatase Increase - Number of Reports,Hepatotoxicity [4],>= 4
CN(C)c1ccc(O)c2c1C[C@H]1C[C@H]3[C@H](N(C)C)C(O)=C(C(N)=O)C(=O)[C@@]3(O)C(O)=C1C2=O [MINOCYCLINE],SGPT Increase - Activity Score,Hepatotoxicity [1],Marginally Active
same,SGPT Increase - Index Value,Hepatotoxicity [1],No Shipping Units
same,SGPT Increase - Number of Reports,Hepatotoxicity [1],>= 4
same,SGOT Increase - Activity Score,Hepatotoxicity [3],Marginally Active
same,SGOT Increase - Index Value,Hepatotoxicity [3],No Shipping Units
same,SGOT Increase - Number of Reports,Hepatotoxicity [3],>= 4
same,Composite Activity - Active,Hepatotoxicity [2],0
same,Composite Activity - Marginal,Hepatotoxicity [2],2
CCOc1ccc2ccccc2c1C(=O)N[C@@H]1C(=O)N2[C@@H]1SC(C)(C)[C@@H]2C(=O)O [NAFCILLIN],Composite Activity - Active,Hepatotoxicity [2],1
same,Composite Activity - Marginal,Hepatotoxicity [2],0
same,Alkaline Phosphatase Increase - Activity Score,Hepatotoxicity [4],Active
same,Alkaline Phosphatase Increase - Index Value,Hepatotoxicity [4],10.9
same,Alkaline Phosphatase Increase - Number of Reports,Hepatotoxicity [4],>= 4
CNCCC=C1c2ccccc2CCc2ccccc21 [NORTRIPTYLINE],SGPT Increase - Activity Score,Hepatotoxicity [1],Marginally Active
same,SGPT Increase - Index Value,Hepatotoxicity [1],11.6
same,SGPT Increase - Number of Reports,Hepatotoxicity [1],< 4
same,Composite Activity - Active,Hepatotoxicity [2]; Liver,1
same,Composite Activity - Marginal,Hepatotoxicity [2]; Liver,1
same,Alkaline Phosphatase Increase - Activity Score,Hepatotoxicity [4],Active
same,Alkaline Phosphatase Increase - Index Value,Hepatotoxicity [4],15.4
same,Alkaline Phosphatase Increase - Number of Reports,Hepatotoxicity [4],>= 4
OCCN1CCN(CCCN2c3ccccc3Sc3ccc(Cl)cc32)CC1 [PERPHENAZINE],Composite Activity - Active,Hepatotoxicity [2],0
same,Composite Activity - Marginal,Hepatotoxicity [2],0
O=C1NC(=O)C(c2ccccc2)(c2ccccc2)N1 [PHENYTOIN],Composite Activity - Active,Hepatotoxicity [2]; Liver,0
same,Composite Activity - Marginal,Hepatotoxicity [2]; Liver,0
COc1cc2nc(N3CCN(C(=O)c4ccco4)CC3)nc(N)c2cc1OC [PRAZOSIN],Composite Activity - Active,Hepatotoxicity [2],0
same,Composite Activity - Marginal,Hepatotoxicity [2],0
C[C@]12C=CC(=O)C=C1CC[C@@H]1[C@@H]2C(=O)C[C@@]2(C)[C@H]1CC[C@]2(O)C(=O)CO [PREDNISONE],Composite Activity - Active,Hepatotoxicity [2],0
same,Composite Activity - Marginal,Hepatotoxicity [2],0
CCC1(c2ccccc2)C(=O)NCNC1=O [PRIMIDONE],Composite Activity - Active,Hepatotoxicity [2],0
same,Composite Activity - Marginal,Hepatotoxicity [2],0
CCCN(CCC)S(=O)(=O)c1ccc(C(=O)O)cc1 [PROBENECID],Composite Activity - Active,Hepatotoxicity [2],0
same,Composite Activity - Marginal,Hepatotoxicity [2],0
CNNCc1ccc(C(=O)NC(C)C)cc1 [PROCARBAZINE],Composite Activity - Active,Hepatotoxicity [2],0
same,Composite Activity - Marginal,Hepatotoxicity [2],0
CCCc1cc(=O)[nH]c(=S)[nH]1 [PROPYLTHIOURACIL],Composite Activity - Active,Hepatotoxicity [2]; Liver,0
same,Composite Activity - Marginal,Hepatotoxicity [2]; Liver,0
C=C[C@H]1C[N@@]2CC[C@H]1C[C@@H]2[C@@H](O)c1ccnc2ccc(OC)cc12 [QUINIDINE],Composite Activity - Active,Hepatotoxicity [2],0
same,Composite Activity - Marginal,Hepatotoxicity [2],0
CC(=O)S[C@@H]1CC2=CC(=O)CC[C@]2(C)[C@H]2CC[C@@]3(C)[C@@H](CC[C@@]34CCC(=O)O4)[C@H]12 [SPIRONOLACTONE],Composite Activity - Active,Hepatotoxicity [2],0
same,Composite Activity - Marginal,Hepatotoxicity [2],0
Nc1ccc(S(=O)(=O)Nc2ncccn2)cc1 [SULFADIAZINE],Composite Activity - Active,Hepatotoxicity [2]; Liver,0
same,Composite Activity - Marginal,Hepatotoxicity [2]; Liver,0
O=C(O)c1cc(/N=N/c2ccc(S(=O)(=O)Nc3ccccn3)cc2)ccc1O [SULFASALAZINE],SGPT Increase - Activity Score,Hepatotoxicity [1],Active
same,SGPT Increase - Index Value,Hepatotoxicity [1],4
same,SGPT Increase - Number of Reports,Hepatotoxicity [1],>= 4
same,Composite Activity - Active,Hepatotoxicity [2],1
same,Composite Activity - Marginal,Hepatotoxicity [2],0
CN(C)[C@@H]1C(O)=C(C(N)=O)C(=O)[C@@]2(O)C(O)=C3C(=O)c4c(O)cccc4[C@@](C)(O)[C@H]3C[C@@H]12 [TETRACYCLINE],Composite Activity - Active,Hepatotoxicity [2],0
same,Composite Activity - Marginal,Hepatotoxicity [2],0
CSc1ccc2c(c1)N(CCC1CCCCN1C)c1ccccc1S2 (stereo not given) [THIORIDAZINE],Composite Activity - Active,Hepatotoxicity [2],0
same,Composite Activity - Marginal,Hepatotoxicity [2],1
same,Alkaline Phosphatase Increase - Activity Score,Hepatotoxicity [4],Marginally Active
same,Alkaline Phosphatase Increase - Index Value,Hepatotoxicity [4],3.2
same,Alkaline Phosphatase Increase - Number of Reports,Hepatotoxicity [4],>= 4
S=P(N1CC1)(N1CC1)N1CC1 [THIOTEPA],Composite Activity - Active,Hepatotoxicity [2],0
same,Composite Activity - Marginal,Hepatotoxicity [2],0
NC[C@H]1O[C@H](O[C@H]2[C@H](O)[C@@H](O[C@H]3O[C@H](CO)[C@@H](O)[C@H](N)[C@H]3O)[C@H](N)C[C@@H]2N)[C@H](N)C[C@@H]1O [TOBRAMYCIN],Composite Activity - Active,Hepatotoxicity [2],0
same,Composite Activity - Marginal,Hepatotoxicity [2],0
N[C@@H]1C[C@H]1c1ccccc1.N[C@H]1C[C@@H]1c1ccccc1 [TRANYLCYPROMINE],Composite Activity - Active,Hepatotoxicity [2]; Liver,0
same,Composite Activity - Marginal,Hepatotoxicity [2]; Liver,0
CN1CCN(CCCN2c3ccccc3Sc3ccc(C(F)(F)F)cc32)CC1 [TRIFLUOPERAZINE],Composite Activity - Active,Hepatotoxicity [2],0
same,Composite Activity - Marginal,Hepatotoxicity [2],0
CC[C@]1(O)C[C@H]2CN(CCc3c([nH]c4ccccc34)[C@@](C(=O)OC)(c3cc4c(cc3OC)N(C=O)[C@H]3[C@@](O)(C(=O)OC)[C@H](OC(C)=O)[C@]5(CC)C=CCN6CC[C@]43[C@@H]65)C2)C1 [VINCRISTINE],Composite Activity - Active,Hepatotoxicity [2],0
same,Composite Activity - Marginal,Hepatotoxicity [2],0
